Reference: patent US5599793A, “Antithromobotic agents” (Eli Lilly and Company, priority 1995, dated 1997)

Key:
Trypsin = target: T1, Trypsin (Bos taurus, UniProt P00760); assay: Serine protease selectivity, chromogenic substrate (Kass), trypsin; type: biochemical, bovine; conditions: substrate N-Benzoyl-Phe-Val-Arg-p-nitroanilide
T1 construct: Bovine trypsin is purchased; purchased Worthington Biochemicals, Freehold, N.J
T1 sequence (P00760 24-246): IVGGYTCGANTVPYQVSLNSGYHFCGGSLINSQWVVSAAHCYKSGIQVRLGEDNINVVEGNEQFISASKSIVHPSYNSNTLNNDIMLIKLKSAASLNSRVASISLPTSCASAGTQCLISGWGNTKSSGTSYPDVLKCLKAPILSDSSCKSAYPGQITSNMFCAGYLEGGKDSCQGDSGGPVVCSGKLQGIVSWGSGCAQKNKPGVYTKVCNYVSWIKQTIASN
Description: (§1) The assay is carried out by mixing 50 μL buffer (0.03M Tris, 0.15M NaCl, pH 7.4) with 25 μL of bovine thrombin or human thrombin solution (0.21 mg/mL of thrombostat bovine thrombin, Parke-Davis, or purified human thrombin, Enzyme Research Laboratories, South Bend, Ind., at about 8 NIH units/mL, in the same buffer) and 25 μL of test compound in a solvent (in 50% aqueous methanol, v:v). The 150 μL of an aqueous solution of the chromogenic substrate (at 0.25 mg/mL) are added and the rates of hydrolysis of the substrate are measured by monitoring the reactions at 405 nm for the release of p-nitroaniline. Standard curves are constructed by plotting free thrombin concentration against hydrolysis rate. The hydrolysis rates observed with test compounds are then converted to "free thrombin" values in the respective assays by use of the standard curves. The bound thrombin (bound to test compound) is calculated by subtracting the amount of free thrombin observed in each assay from the known initial amount of thrombin used in the assay. The amount of free inhibitor in each assay is calculated by subtracting the number of moles of bound thrombin from the number of moles of added inhibitor (test compound).
(§2) Kass is calculated for a range of concentrations of test compounds and the mean value is reported in units of liter per mole.
(§3) By substantially following the procedures described above for human thrombin, and using other human blood coagulation system serine proteases and proteases of the fibrinolytic system with the appropriate chromogenic substrates, identified below, selectivity of the compounds of the present invention with respect to the coagulation factor serine proteases and with respect to the fibrinolytic system serine proteases are evaluated as well as their substantial lack of interference with serine proteases of the fibrinolytic system. Thrombin inhibitors preferably should spare fibrinolysis induced by urokinase, tissue plasminogen activator (t-PA) and streptokinase. This would be important to the therapeutic use of such agents as an adjunct to streptokinase, t-PA or urokinase thrombolytic therapy and to the use of such agents as an endogenous fibrinolysis-sparing (with respect to t-PA and urokinase) antithrombotic agent. In addition to the lack of interference with the amidase activity of the fibrinolytic proteases, such fibrinolytic system sparing can be studied by the use of human plasma clots and their lysis by the respective fibrinolytic plasminogen activators.
(§4) Human factors X, Xa, IXa, XIa, and XIIa are purchased from Enzyme Research Laboratories, South Bend, Ind.; human urokinase from Leo Pharmaceuticals, Denmark; and recombinant activated Protein C (aPC) is prepared at Eli Lilly and Co. substantially according to U.S. Pat. No. 4,981,952. Chromogenic substrates: N-Benzoyl-Ile-Glu-Gly-Arg-p-nitroanilide (for factor Xa); N-Cbz-D-Arg-Gly-Arg-p-nitroanilide (for factor IXa assay as the factor Xa substrate); Pyroglutamyl-Pro-Arg-p-nitroanilide (for Factor XIa and for aPC); H-D-Pro-Phe-Arg-p-nitroanilide (for factor XIIa); and Pyroglutamyl-Gly-Arg-p-nitroanilide (for urokinase); are purchased from KabiVitrum, Stockholm, Sweden, or from Midwest Biotech, Fishers, Ind. Bovine trypsin is purchased from Worthington Biochemicals, Freehold, N.J., and human plasma kallikrein from Kabi Vitrum, Stockholm, Sweden. Chromogenic substrate H-D-Pro-Phe-Arg-p-nitroanilide for plasma kallikrein is purchased from Kabi Vitrum, Stockholm, Sweden. N-Benzoyl-Phe-Val-Arg-p-nitroanilide, the substrate for human thrombin and for trypsin, is synthesized according to procedures described above for the compounds of the present invention, using known methods of peptide coupling from commercially available reactants or purchased from Midwest Biotech, Fishers, Ind.

t-PA = target: T2, t-PA (Homo sapiens, UniProt P00750); assay: Serine protease selectivity, chromogenic substrate (Kass), t-PA; type: biochemical; conditions: substrate H-D-Ile-Pro-Arg-p-nitroanilide
T2 construct: purchased American Diagnostica, Greenwich, Conn
T2 sequence (P00750 36-562): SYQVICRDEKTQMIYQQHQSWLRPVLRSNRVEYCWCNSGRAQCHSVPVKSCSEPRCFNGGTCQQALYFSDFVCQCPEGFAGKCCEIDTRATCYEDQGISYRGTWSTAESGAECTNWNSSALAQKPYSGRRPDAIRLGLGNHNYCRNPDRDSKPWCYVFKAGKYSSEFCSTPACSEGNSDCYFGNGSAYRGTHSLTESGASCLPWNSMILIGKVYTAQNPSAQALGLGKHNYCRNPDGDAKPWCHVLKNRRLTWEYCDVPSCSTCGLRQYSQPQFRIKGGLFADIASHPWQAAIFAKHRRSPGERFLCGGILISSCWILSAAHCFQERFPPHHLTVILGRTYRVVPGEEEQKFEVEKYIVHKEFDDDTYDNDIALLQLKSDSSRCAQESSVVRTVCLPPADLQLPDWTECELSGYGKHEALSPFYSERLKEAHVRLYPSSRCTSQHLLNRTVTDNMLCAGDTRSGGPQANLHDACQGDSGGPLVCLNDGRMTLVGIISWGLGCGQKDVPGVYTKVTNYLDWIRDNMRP
Description: as §1, §2, §3
(§5) Human plasmin is purchased from Boehringer Mannheim, Indianapolis, Ind.; nt-PA is purchased as single chain activity reference from American Diagnostica, Greenwich, Conn.; modified-t-PA6 (mt-PA6) is prepared at Eli Lilly and Company by procedure known in the art (See, Burck, et al., J. Biol. Chem., 265, […] (1990). Plasmin chromogenic substrate H-D-Val-Leu-Lys-p-nitroanilide and tissue plasminogen activator (t-PA) substrate H-D-Ile-Pro-Arg-p-nitroanilide are purchased from Kabi Vitrum, Stockholm, Sweden.

Plasmin = target: T3, Plasmin (Homo sapiens, UniProt P00747); assay: Serine protease selectivity, chromogenic substrate (Kass), plasmin; type: biochemical; conditions: substrate H-D-Val-Leu-Lys-p-nitroanilide
T3 construct: Human plasmin is purchased; purchased Boehringer Mannheim, Indianapolis, Ind
T3 sequence (P00747 581-810 limits assumed): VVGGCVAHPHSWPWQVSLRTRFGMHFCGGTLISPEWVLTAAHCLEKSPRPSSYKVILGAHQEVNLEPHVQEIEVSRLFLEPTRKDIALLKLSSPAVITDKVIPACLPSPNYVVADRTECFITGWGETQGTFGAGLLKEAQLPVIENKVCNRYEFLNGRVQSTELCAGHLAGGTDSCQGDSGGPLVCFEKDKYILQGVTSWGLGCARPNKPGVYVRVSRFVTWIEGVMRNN
T3 sequence (P00747 97-580 partner limits assumed): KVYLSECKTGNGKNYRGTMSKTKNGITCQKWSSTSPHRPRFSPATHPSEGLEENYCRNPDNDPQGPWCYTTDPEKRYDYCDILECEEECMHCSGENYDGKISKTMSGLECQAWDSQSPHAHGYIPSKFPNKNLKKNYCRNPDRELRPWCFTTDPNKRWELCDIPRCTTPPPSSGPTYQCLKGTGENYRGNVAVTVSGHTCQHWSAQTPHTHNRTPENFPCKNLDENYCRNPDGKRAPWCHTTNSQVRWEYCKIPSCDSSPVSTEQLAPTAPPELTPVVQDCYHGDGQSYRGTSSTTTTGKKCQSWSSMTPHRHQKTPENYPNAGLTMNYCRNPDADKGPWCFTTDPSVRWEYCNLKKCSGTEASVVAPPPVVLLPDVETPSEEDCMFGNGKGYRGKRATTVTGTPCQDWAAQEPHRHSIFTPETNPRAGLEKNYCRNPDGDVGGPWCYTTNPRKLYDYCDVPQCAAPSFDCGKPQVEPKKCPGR
Description: as §1, §2, §3, §5

factor Xa = target: T4, factor Xa (Homo sapiens, UniProt P00742); assay: Serine protease selectivity, chromogenic substrate (Kass), factor Xa; type: biochemical; conditions: substrate N-Benzoyl-Ile-Glu-Gly-Arg-p-nitroanilide
T4 construct: Human factors X, Xa, IXa, XIa, and XIIa are purchased; purchased Enzyme Research Laboratories, South Bend, Ind
T4 sequence (P00742 235-488 limits assumed): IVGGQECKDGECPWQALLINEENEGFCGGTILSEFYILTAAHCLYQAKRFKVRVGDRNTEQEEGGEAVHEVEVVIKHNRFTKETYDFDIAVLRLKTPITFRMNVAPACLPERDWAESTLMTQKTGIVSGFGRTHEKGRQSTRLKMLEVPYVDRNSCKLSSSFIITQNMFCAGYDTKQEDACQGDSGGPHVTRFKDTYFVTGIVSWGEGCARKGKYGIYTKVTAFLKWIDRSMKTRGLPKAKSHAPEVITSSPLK
T4 sequence (P00742 41-179 partner limits assumed): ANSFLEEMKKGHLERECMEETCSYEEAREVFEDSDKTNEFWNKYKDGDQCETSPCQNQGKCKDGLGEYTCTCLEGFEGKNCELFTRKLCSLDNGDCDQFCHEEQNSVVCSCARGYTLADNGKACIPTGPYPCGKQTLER
Description: as §1, §2, §3, §4

Row | Compound | Enzyme Kass, Trypsin (Trypsin) | Enzyme Kass, t-PA (t-PA) | Enzyme Kass, Plasmin (Plasmin) | Enzyme Kass, Xa (factor Xa) | Enzyme Kass, Trypsin (Trypsin; HCl) | Enzyme Kass, t-PA (t-PA; HCl) | Enzyme Kass, Plasmin (Plasmin; HCl) | Enzyme Kass, Xa (factor Xa; HCl)
1 | C[C@H]1C[C@@H](C(=O)N[C@H](C=O)CCCNC(=N)N)N(C(=O)[C@H]2CCCCN2)C1.Cl.Cl (relative stereo) [Example 1, D-homoprolyl-L-cis-4-methyl-prolyl-L-argininal dihydrochloride] | 390 L/mol × 10^6 | 0.077 L/mol × 10^6 | 0.86 L/mol × 10^6 | 1.4 L/mol × 10^6 | – | – | – | –
2 | CC[C@H]1C[C@@H](C(=O)N[C@H](C=O)CCCNC(=N)N)N(C(=O)[C@H]2CCCCN2)C1.Cl.Cl (relative stereo) [Example 2, D-homoprolyl-L-cis-4-ethyl-prolyl-L-argininal dihydrochloride] | 520 L/mol × 10^6 | 0.097 L/mol × 10^6 | 1.0 L/mol × 10^6 | 1.7 L/mol × 10^6 | – | – | – | –
3 | CCC[C@H]1C[C@@H](C(=O)N[C@H](C=O)CCCNC(=N)N)N(C(=O)[C@H]2CCCCN2)C1.Cl.Cl (relative stereo) [Example 3, D-hPro-Pro(4-cis-n-propyl)-ArgH.2 HCl] | 260 L/mol × 10^6 | 0.14 L/mol × 10^6 | 0.66 L/mol × 10^6 | 1.7 L/mol × 10^6 | – | – | – | –
4 | Cl.Cl.N=C(N)NCCC[C@@H](C=O)NC(=O)[C@@H]1C[C@H](Cc2ccccc2)CN1C(=O)[C@H]1CCCCN1 (relative stereo) [Example 5, D-hPro-Pro(4-cis-benzyl)-ArgH.2 HCl] | 150 L/mol × 10^6 | 0.057 L/mol × 10^6 | 2.1 L/mol × 10^6 | 5.8 L/mol × 10^6 | – | – | – | –
5 | Cl.Cl.N=C(N)NCCC[C@@H](C=O)NC(=O)[C@@H]1CC2CCCCC2N1C(=O)[C@H]1CCCCN1 (relative stereo) [Example 7, N-[(1-D-homoprolyl-cis-octahydro-1H-indol-2(S)-yl)carbonyl]-L-argininal dihydrochloride] | 150 L/mol × 10^6 | 0.053 L/mol × 10^6 | 1.8 L/mol × 10^6 | 1.6 L/mol × 10^6 | – | – | – | –
6 | Cl.Cl.N=C(N)NCCC[C@H](C=O)NC(=O)[C@@H]1C[C@H](Oc2ccccc2)CN1C(=O)[C@H]1CCCCN1 (relative stereo) [Example 8, D-homoprolyl-L-cis-4-phenoxy-L-prolyl-D-argininal dihydrochloride] | 270 L/mol × 10^6 | 0.069 L/mol × 10^6 | 2.9 L/mol × 10^6 | 3.0 L/mol × 10^6 | – | – | – | –
7 | Cl.Cl.Cl.N=C(N)NCCC[C@@H](C=O)NC(=O)[C@@H]1C[C@H](Oc2cccnc2)CN1C(=O)[C@H]1CCCCN1 (relative stereo) [Example 9, D-hPro-Pro(4-cis-(3-pyridyloxy))-ArgH.3 HCl] | 130 L/mol × 10^6 | 0.055 L/mol × 10^6 | 1.7 L/mol × 10^6 | 1.6 L/mol × 10^6 | – | – | – | –
8 | Cl.Cl.Cl.N=C(N)NCCC[C@@H](C=O)NC(=O)[C@@H]1C[C@H](Oc2ccc(N)cc2)CN1C(=O)[C@H]1CCCCN1 (relative stereo) [Example 11, D-hPro-Pro(4-cis-(4-NH2-phenoxy))-ArgH.3 HCl] | 74 L/mol × 10^6 | 0.086 L/mol × 10^6 | 1.4 L/mol × 10^6 | 0.66 L/mol × 10^6 | – | – | – | –
9 | Cl.Cl.N=C(N)NCCC[C@@H](C=O)NC(=O)[C@@H]1C[C@H](Oc2ccccc2)CN1C(=O)C1NCCC2CCCCC21 (relative stereo) [Example 15, D-1-Piq-Pro(4-cis-phenoxy)-ArgH.2 HCl] | 140 L/mol × 10^6 | 0.045 L/mol × 10^6 | 5.1 L/mol × 10^6 | 2.6 L/mol × 10^6 | – | – | – | –
10 | CCS(=O)(=O)N[C@@H](C(=O)N1[C@H](C(=O)N[C@H](C=O)CCCNC(=N)N)C[C@@H]2CCCC[C@@H]21)c1ccccc1.Cl (relative stereo) [Example 22, EtSO2 -D-Phg-cis-Ohi-ArgH.HCl] | 312 L/mol × 10^6 | 0.085 L/mol × 10^6 | 27.6 L/mol × 10^6 | 11.8 L/mol × 10^6 | – | – | – | –
11 | Cl.Cl.N=C(N)NCCCC(C=O)NC(=O)C1CC2CCCCC2N1C(=O)C1NCCC2CCCCC21 [Example 20, D-1-cis-Piq-cis-Ohi-ArgH.2 HCl] | – | – | – | – | 119 L/mol × 10^6 | 0.013 L/mol × 10^6 | 3.67 L/mol × 10^6 | 0.75 L/mol × 10^6
